# Test results: EP0107907A2, “Improvements in or relating to immunomodulating agents” (ELI LILLY AND COMPANY, priority 1982, dated 1984)
# What was measured:
# murine macrophages = test: In vitro activation of murine macrophages (macrophage-mediated tumor cytotoxicity against P815 cells); assay type: cell-based; conditions: 48 hours
# Procedure: In one procedure, the ability of the compounds to activate murine macrophages in vitro was determined. Peritoneal macrophages were exposed to a compound of formula 1, 2, or 3 simultaneously with the addition of target cells. Tumor cytotoxicity of these treated macrophages was determined 48 hours later by trypan blue enumeration. The percentage of growth inhibition of P815 cells due to composition-mediated macrophage activation was calculated by comparison to that of P815 cells grown in the.presence of macrophages exposed to buffer.
# peritoneal macrophages = test: In vivo macrophage activation (peritoneal macrophages from treated mice, cytotoxicity against P815 cells); set-up: species or system BALB/c mice
# Procedure: In another procedure, peritoneal macrophages were harvested after 3, 5, or 10 days from composition- treated mice by peritoneal lavage and purified by adherence on plastic. Approximately 4 x 10^5 macrophages in 16-mm wells were overlaid with 4 x 10^4 P815 cells contained in 2 ml of Roswell Park Memorial Institute.1640 Medium supplemented with 20 percent fetal calf serum. All cultures were maintained in a humidified, 5-percent COZ-in-air incubator at 37°C., and cytotoxicity was assessed at 48 hours on the basis of viable cell counts in a hemocytometer. Triplicate cultures were maintained for each group; the mean cell count and standard error (S.E.) were calculated. […] The ratio of macrophages to target cells was approximately 10:1 at the beginning of each experiment. The percentage of growth inhibition of P815 cells due to composition-mediated macrophage activation was calculated by comparison to that of P815 cells grown in the presence of macrophages from buffer- treated animals.
# Electrometric titration = assay type: physicochemical; conditions: 66% aqueous dimethylformamide; the glycyl amino group
structure (smiles),measurement,setting,value
"C=C(CP(=O)(O)O)NC(=O)[C@H](CC(C)C)NC(=O)CN [Compound 1, N^2-glycyl-N-(1-methylene-2-phosphonoethyl)leucinamide]",Percent Macrophage Cytotoxicity,"murine macrophages; 1.56 µg/ml, Experiment 2",0%
same,Percent Macrophage Cytotoxicity,"murine macrophages; 3.12 µg/ml, Experiment 1",11%
same,Percent Macrophage Cytotoxicity,"murine macrophages; 3.12 µg/ml, Experiment 2",14%
same,Percent Macrophage Cytotoxicity,"murine macrophages; 6.25 µg/ml, Experiment 1",0%
same,Percent Macrophage Cytotoxicity,"murine macrophages; 6.25 µg/ml, Experiment 2",0%
same,Percent Macrophage Cytotoxicity,"murine macrophages; 12.5 µg/ml, Experiment 1",27%
same,Percent Macrophage Cytotoxicity,"murine macrophages; 12.5 µg/ml, Experiment 2",39%
same,Percent Macrophage Cytotoxicity,"murine macrophages; 25 µg/ml, Experiment 1",43%
same,Percent Macrophage Cytotoxicity,"murine macrophages; 25 µg/ml, Experiment 2",32%
same,Percent Macrophage Cytotoxicity,"murine macrophages; 50 µg/ml, Experiment 1",35%
same,Percent Macrophage Cytotoxicity,"murine macrophages; 50 µg/ml, Experiment 2",29%
same,Percent Macrophage Cytotoxicity,"murine macrophages; 100 µg/ml, Experiment 1",53%
same,Percent Macrophage Cytotoxicity at Day,"peritoneal macrophages; dose 10 mg/kg, Day 0",0%
same,Percent Macrophage Cytotoxicity at Day,"peritoneal macrophages; dose 10 mg/kg, Day 3",8%
same,Percent Macrophage Cytotoxicity at Day,"peritoneal macrophages; dose 10 mg/kg, Day 5",20%
same,Percent Macrophage Cytotoxicity at Day,"peritoneal macrophages; dose 10 mg/kg, Day 10",0%
same,Percent Macrophage Cytotoxicity at Day,"peritoneal macrophages; dose 100 mg/kg, Day 0",0%
same,Percent Macrophage Cytotoxicity at Day,"peritoneal macrophages; dose 100 mg/kg, Day 3",43%
same,Percent Macrophage Cytotoxicity at Day,"peritoneal macrophages; dose 100 mg/kg, Day 5",25%
same,Percent Macrophage Cytotoxicity at Day,"peritoneal macrophages; dose 100 mg/kg, Day 10",0%
same,pKa,Electrometric titration,8.2
